Test systems include 786-0 renal; COLO 205 colon; HOP-92 NSCLC; HS 578T breast; HT29 colon; IGROV1 ovarian; LOX IMVI melanoma; MDA-MB-231 breast; MDA-MB-435; MOLT-4 leukemia; RXF 393 renal; SF-268 CNS; UACC-62 melanoma.
Holding throughout (assay): inhibition of tumour cell growth, NCI panel, 48 h

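Step 1: Grow cells in 96-well plates. Step 2: Expose to compound for 48 hours at 5 concentrations. Step 3: Interpolate endpoints linearly; if unreached, use highest concentration. TGI: concentration producing complete growth inhibition.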

As for `CCOC(=O)c1nc2ccc(C(F)(F)F)cc2nc1Oc1ccc(F)cc1`, the TGI in the assay on 786-0 renal, in the assay on COLO 205 colon, in the assay on HOP-92 NSCLC, with HS 578T breast, in the assay with HT29 colon and with IGROV1 ovarian was greater than 100 µM throughout. The TGI with LOX IMVI melanoma, in the assay with MDA-MB-231 breast, with MDA-MB-435, in the assay on MOLT-4 leukemia, with RXF 393 renal and in the assay with SF-268 CNS was greater than 100 µM throughout. Also, the TGI in the assay with UACC-62 melanoma is greater than 100 µM.
Turning to `CCOC(=O)c1c(NC(=O)Nc2ccccc2)c(C(N)=O)c2n1CCCCC2`, the TGI in the assay on 786-0 renal, in the assay with COLO 205 colon, in the assay on HOP-92 NSCLC, in the assay on HS 578T breast, with HT29 colon and in the assay with IGROV1 ovarian was greater than 100 µM each time. In addition, the TGI in the assay on LOX IMVI melanoma, with MDA-MB-231 breast, in the assay with MDA-MB-435, in the assay on MOLT-4 leukemia, with RXF 393 renal and in the assay on SF-268 CNS was greater than 100 µM each time. The compound further gave a TGI in the assay on UACC-62 melanoma greater than 100 µM.
In the case of `CC(=O)OCC1OC(O[C@@H]2c3c(O)c4c(c(O)c3C3=C(NN(c5ccc([N+](=O)[O-])cc5[N+](=O)[O-])[Se]3=O)[C@@]2(C)O)C(=O)c2ccccc2C4=O)C(OC(C)=O)C(OC(C)=O)C1OC(C)=O` (some centres not stated), the TGI in the assay on 786-0 renal amounted to 0.296 µM; with COLO 205 colon, 0.322 µM; in the assay with HOP-92 NSCLC, 2.05 µM; in the assay with HS 578T breast, 0.927 µM; with HT29 colon, 0.57 µM; with IGROV1 ovarian, 1.09 µM. In addition, the TGI amounted to 0.319 µM with LOX IMVI melanoma; 1.48 µM in the assay on MDA-MB-231 breast; 0.332 µM in the assay with MDA-MB-435; 0.23 µM with MOLT-4 leukemia; 3.81 µM in the assay on RXF 393 renal; 0.555 µM in the assay with SF-268 CNS. The TGI in the assay with UACC-62 melanoma is 0.936 µM.
`COc1cc2cc(C(=O)N3CC(CCl)c4ccc(NCCN)cc43)[nH]c2c(OC)c1OC` (configuration not stated): the TGI in the assay on 786-0 renal amounted to 1.12 µM; with COLO 205 colon, 2.55 µM; in the assay with HOP-92 NSCLC, 4 µM; in the assay with HS 578T breast, 3.37 µM; in the assay on HT29 colon it was 11.1 µM; in the assay with IGROV1 ovarian, 0.375 µM. For the same compound, the TGI in the assay on LOX IMVI melanoma came to 0.881 µM; with MDA-MB-231 breast, 1.9 µM; in the assay on MDA-MB-435, 0.706 µM; with MOLT-4 leukemia, 0.356 µM; with RXF 393 renal, 0.327 µM; with SF-268 CNS it was 1.29 µM. For the same compound, the TGI with UACC-62 melanoma stood at 0.35 µM.
As for `NC1=NC(OCC2(CO)CCC2)C=C(NCC2(CO)CCC2)N1` (configuration not stated), the TGI with 786-0 renal, in the assay on COLO 205 colon, in the assay with HOP-92 NSCLC, in the assay on HS 578T breast, in the assay on HT29 colon and in the assay on IGROV1 ovarian was greater than 100 µM in each case. Also, the TGI in the assay with LOX IMVI melanoma, in the assay on MDA-MB-231 breast, in the assay on MDA-MB-435, with MOLT-4 leukemia, with RXF 393 renal and with SF-268 CNS was greater than 100 µM each time. The compound also returned a TGI in the assay on UACC-62 melanoma greater than 100 µM.
In the case of `C=C[C@H]1CN2CCc3c([nH]c4c([C@H]5CCCN5C)c(O)ccc34)[C@@H]2C[C@@H]1C[C@H]1c2[nH]c3ccccc3c2CCN1C`, the TGI with 786-0 renal was found to be 2.77 µM; in the assay with COLO 205 colon, 2.83 µM; in the assay on HOP-92 NSCLC, 2.82 µM; with HS 578T breast, 4.59 µM; with HT29 colon, 2.75 µM; in the assay on IGROV1 ovarian, 3.04 µM. The TGI is 2.4 µM in the assay on LOX IMVI melanoma; 3.41 µM with MDA-MB-231 breast; 2.83 µM in the assay with MDA-MB-435; 5.32 µM in the assay on MOLT-4 leukemia; 2.25 µM in the assay on RXF 393 renal; 2.97 µM with SF-268 CNS. The same compound displayed a TGI with UACC-62 melanoma of 3.16 µM.
As for `CN(C)CCO/N=C1/C=C2CC[C@H]3[C@@H]4CC[C@H](O)[C@@]4(C)CC[C@@H]3[C@@]2(C)CC1`, the TGI in the assay on 786-0 renal turned out to be 27.9 µM; in the assay with COLO 205 colon, 34.9 µM; in the assay with HOP-92 NSCLC, 23 µM; in the assay on HS 578T breast it was 54.1 µM; with HT29 colon it was 5.53 µM; with IGROV1 ovarian, 25.2 µM. For the same compound, the TGI with LOX IMVI melanoma is 60.2 µM; in the assay with MDA-MB-231 breast, 44.4 µM; in the assay on MDA-MB-435, 12.4 µM; in the assay with MOLT-4 leukemia, greater than 36.3 µM; in the assay with RXF 393 renal, 27.7 µM; in the assay on SF-268 CNS, 31.6 µM. This compound also gave a TGI with UACC-62 melanoma of 26 µM.
As for `Cc1sc2nc3n(c(=O)c2c1C)N=C(c1ccc(Cl)cc1)CS3`, the TGI in the assay on 786-0 renal, with COLO 205 colon, in the assay on HOP-92 NSCLC, in the assay with HS 578T breast, with HT29 colon and with LOX IMVI melanoma was greater than 100 µM throughout. Moreover, the TGI with MDA-MB-231 breast, with MDA-MB-435, in the assay with MOLT-4 leukemia, in the assay on RXF 393 renal, with SF-268 CNS and with UACC-62 melanoma was greater than 100 µM each time.
As to `CC(=O)O[C@H]1C(=O)[C@@]2(C)[C@H]([C@H](OC(=O)C3CCCCC3)[C@]3(O)C[C@H](OC(=O)[C@H](O)[C@@H](NC(=O)C4CCCCC4)C4CCCCC4)C(C)=C1C3(C)C)[C@]1(OC(C)=O)CO[C@@H]1C[C@@H]2O`, the TGI in the assay on 786-0 renal was found to be 6.97 µM; in the assay on COLO 205 colon, 0.0266 µM; with HOP-92 NSCLC it was 4.72 µM; with HS 578T breast it was 0.0531 µM; in the assay with IGROV1 ovarian, 6.77 µM; in the assay with LOX IMVI melanoma, 5.03 µM. Also, the TGI in the assay on MDA-MB-231 breast worked out at 0.476 µM; in the assay on MDA-MB-435 it was 0.0105 µM; with MOLT-4 leukemia, 4.18 µM; in the assay with RXF 393 renal it was 0.555 µM; in the assay on SF-268 CNS it was 8.14 µM; in the assay on UACC-62 melanoma it was 3.89 µM.
On to `CCC(=O)COc1ccc(NC(NC(=O)C(C(F)(F)F)C(F)(F)F)(C(F)(F)F)C(F)(F)F)cc1`, for which the TGI in the assay with 786-0 renal was 61.7 µM; in the assay on COLO 205 colon, 43.7 µM; in the assay on HOP-92 NSCLC, greater than 100 µM; in the assay with HS 578T breast, greater than 100 µM; in the assay with HT29 colon it was 70.3 µM; with IGROV1 ovarian, 44.9 µM. For the same compound, the TGI with LOX IMVI melanoma was 74.1 µM; with MDA-MB-231 breast it was 54.2 µM; in the assay with MDA-MB-435, greater than 100 µM; in the assay on MOLT-4 leukemia, 44.8 µM; with RXF 393 renal, 48.7 µM; with SF-268 CNS, 78.1 µM.

These data come from PubChem BioAssay (NCI).
